# pIC50: −log10 of the molar value.
# Experiments:
# [1] = system: 5-LO (LTB4) in heparinised human blood; assay: In vitro heparinised human blood challenged with A23187, LTB4 radioimmunoassay (test b); format: cell-based
# Experimental: b) An in vitro assay system involving incubating a test compound with heparinised human blood, prior to challenge with the calcium ionophore A23187 and then indirectly measuring the inhibitory effects on 5-LO by assaying the amount of LTB4 using the specific radioimmunoassay described by Carey and Forder (F. Carey and R. A. Forder, Brit. J. Pharmacol. 1985, 84, 34P) which involves the use of a protein-LTB4 conjugate produced using the procedure of Young et alia (Prostaglandins, 1983, 26(4), 605-613). The effects of a test compound on the enzyme cyclooxygenase (which is involved in the alternative metabolic pathway for arachidonic acid and gives rise to prostaglandins, thromboxanes and related metabolites) may be measured at the same time using the specific radioimmunoassay for thromboxane B2 (TxB2) described by Carey and Forder (see above). This test provides an indication of the effects of a test compound against 5-LO and also cyclooxygenase in the presence of blood cells and proteins. It permits the selectivity of the inhibitory effect on 5-LO or cyclooxygenase to be assessed.
# 5-LO (LTB4) = assay: Ex vivo assay: administration of compound, blood collection, challenge with A23187, LTB4 radioimmunoassay (test c); format: in vivo; conditions: oral
# Experimental: c) An ex vivo assay system, which is a variation of test b) above, involving administration of a test compound (usually orally as the suspension produced when a solution of the test compound in dimethylsulphoxide is added to carboxymethylcellulose), blood collection, heparinisation, challenge with A23187 and radioimmunoassay of LTB4 and TxB2. This test provides an indication of the bioavailability of a test compound as an inhibitor of 5-LO or cyclooxygenase.
smiles,measurement,setting,value
"CCC1(c2cccc(Sc3ccc4ccccc4c3)c2)COC(C)(C)O1 (centres unmarked) [Example 1, 4-ethyl-2,2-dimethyl-4-[3-(naphth-2-ylthio)phenyl]-1,3-dioxolane]",pIC50,[1],6.30
same,ED50,5-LO (LTB4),3 mg/kg

# From patent publication US5137913A, “Diaryl ether cyclic ethers” (Imperial Chemical Industries PLC, priority 1989, dated 1992)
